Measurements as given in patent US11339144B2 (Navitor Pharmaceuticals, Inc., priority 2017, dated 2022).

How the values were obtained:
[1] = biological target: HA-GST-Rheb (GTP-γ-S loaded) activating mTORC1 (Homo sapiens (Human), UniProt Q15382); test: Rheb-dependent in vitro kinase assay (Rheb-IVK; LanthaScreen or Western readout); format: biochemical; conditions: Rheb-dependent in vitro kinase assay; read-out: IVK IC50
Rheb = Rheb (Homo sapiens (Human), UniProt Q15382); test: Affinity Selection Mass Spectrometry (ASMS); format: binding; conditions: affinity (R3/R0) in Affinity Selection Mass Spectrometry assay
Outline: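 Human Rheb (60 μM) with GDP (180 μM) and each compound at 2 μM, protein-plus versus protein-minus, incubated 30 min at room temperature, then washed by 10 kDa ultrafiltration. Retained ligand was released with MeCN and detected by UPLC-Q-TOF MS.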

Rheb, sequence (Q15382 1-169 limits assumed): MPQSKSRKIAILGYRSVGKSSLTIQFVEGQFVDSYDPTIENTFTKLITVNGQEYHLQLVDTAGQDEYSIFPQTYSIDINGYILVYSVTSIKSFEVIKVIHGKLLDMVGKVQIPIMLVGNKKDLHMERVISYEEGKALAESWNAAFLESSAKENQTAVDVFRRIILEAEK
HA-GST-Rheb (GTP-γ-S loaded) activating mTORC1, sequence (Q15382 1-181): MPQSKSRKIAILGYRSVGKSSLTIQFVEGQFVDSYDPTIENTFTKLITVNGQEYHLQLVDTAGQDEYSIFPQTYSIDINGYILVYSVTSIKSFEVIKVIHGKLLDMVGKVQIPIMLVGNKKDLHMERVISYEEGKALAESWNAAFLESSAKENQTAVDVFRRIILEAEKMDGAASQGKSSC

| Molecule | IC50 [1] | ASMS (R3/R0) (Rheb) |
| --- | --- | --- |
| COc1cccc(CCNC(=O)c2cc3c(Sc4ccc(Cl)cc4)cc(Cl)cc3[nH]2)c1 [I-144] | > 100 µM | B (an affinity (R3/R0) between 100% and 20%) |
| CN1CCN(c2cccc(NC(=O)c3cc4c(Sc5ccc(Cl)cc5Cl)cc(Cl)c(Cl)c4[nH]3)c2)CC1 [I-33, 6,7-dichloro-4-(2,4-dichlorophenylthio)-N-(3-(4-methylpiperazin-1-yl)phenyl)-1H-indole-2-carboxamide] | < 10 µM | A (an affinity (R3/R0)>100%) |
| O=C(O)c1cc2c(Sc3ccc(Cl)c(Cl)c3)cc(Sc3ccc(Cl)c(Cl)c3)cc2[nH]1 [I-88, 4,6-bis(3,4-dichlorophenylthio)-1H-indole-2-carboxylic acid] | < 10 µM | B (an affinity (R3/R0) between 100% and 20%) |
| CC(C)(C)OC(=O)N1CCN(C(=O)c2ccc(Cn3c(C(=O)O)cc4c(Br)cc(Sc5ccc(Cl)c(Cl)c5)cc43)cc2)CC1 [I-44] | > 100 µM | B (an affinity (R3/R0) between 100% and 20%) |
| Fc1ccccc1Oc1cccc2[nH]ccc12 [I-288, 4-(2-fluorophenoxy)-1H-indole] | 100 to 300 µM | C (an affinity (R3/R0)<20%) |
| Clc1ccc2nc(-c3ncco3)n(Cc3ccc(-c4nnn[nH]4)cc3)c2c1 [I-411, 2-(1-(4-(1H-tetrazol-5-yl)benzyl)-6-chloro-1H-benzo[d]imidazol-2-yl)oxazole] | 10 to 100 µM | C (an affinity (R3/R0)<20%) |
| CN1CC(NC(=O)c2cc3c(-c4cc(Cl)cc(Cl)c4)cc(Cl)cc3[nH]2)C1 [I-26] | > 100 µM | B (an affinity (R3/R0) between 100% and 20%) |
| Fc1cccc(Oc2cccc3[nH]ccc23)c1 [I-282, 4-(3-fluorophenoxy)-1H-indole] | 100 to 300 µM | C (an affinity (R3/R0)<20%) |
| CC(O)c1cc2c(Oc3ccccc3)cc(Cl)cc2[nH]1 (stereo not shown) [I-186, 1-(6-Chloro-4-phenoxy-1H-indol-2-yl)ethanol] | 10 to 100 µM | B (an affinity (R3/R0) between 100% and 20%) |
| O=C(O)c1cc2c(Cl)cc(-c3ccccc3)cc2[nH]1 [I-48, 4-chloro-6-phenyl-1H-indole-2-carboxylic acid] | 10 to 100 µM | C (an affinity (R3/R0)<20%) |
| OCc1cc2c(Sc3ccc(F)cc3)cc(Cl)cc2[nH]1 [I-153, (6-chloro-4-(4-fluorophenylthio)-1H-indol-2-yl)methanol] | 10 to 100 µM | B (an affinity (R3/R0) between 100% and 20%) |
| Cn1c(CO)cc2c(Oc3cccc(Cl)c3)cccc21 [I-271] | > 3 µM | C (an affinity (R3/R0)<20%) |
| O=C(O)c1ccc(CCn2c(-c3c[nH]c4ncccc34)nc3cc(Cl)c(Cl)cc32)cc1 [I-335, 4-(2-(5,6-dichloro-2-(1H-pyrrolo[2,3-b]pyridin-3-yl)-1H-benzo[d]imidazol-1-yl)ethyl)benzoic acid] | 100 to 300 µM | B (an affinity (R3/R0) between 100% and 20%) |
| 4-((6-chloro-4-(3,4-dichlorophenoxy)-1H-indol-1-yl)methyl)benzoic acid [I-146] | < 10 µM | B (an affinity (R3/R0) between 100% and 20%) |
| Cn1c(C(=O)O)cc2c(Sc3ccc(Cl)cc3)cc(Cl)cc21 [I-207, 6-chloro-4-(4-chlorophenylthio)-1-methyl-1H-indole-2-carboxylic acid] | 10 to 100 µM | B (an affinity (R3/R0) between 100% and 20%) |
| Nc1ccc(N2CCN(C(=O)c3cc4c(Sc5ccc(Cl)cc5Cl)cc(Cl)cc4[nH]3)CC2)cc1F [I-92, (4-(4-amino-3-fluorophenyl)piperazin-1-yl)(6-chloro-4-(2,4-dichlorophenylthio)-1H-indol-2-yl)methanone] | 10 to 100 µM | B (an affinity (R3/R0) between 100% and 20%) |
| CC(C)(O)CNC(=O)c1ccc(Cn2c(C(=O)O)cc3c(Br)cc(Oc4ccccc4)cc32)cc1 [I-55, 4-bromo-1-(4-(2-hydroxy-2-methylpropylcarbamoyl)benzyl)-6-phenoxy-1H-indole-2-carboxylic acid] | 10 to 100 µM | C (an affinity (R3/R0)<20%) |
| CN1CCC(NC(=O)c2cc3c(Sc4ccc(Cl)cc4)cc(Cl)cc3[nH]2)CC1 [I-80] | > 100 µM | B (an affinity (R3/R0) between 100% and 20%) |
| CN1CCC[C@H]1CNC(=O)c1ccc(-c2nc3cc(Cl)c(Cl)cc3[nH]2)cc1 [I-336] | > 100 µM | B (an affinity (R3/R0) between 100% and 20%) |
| CN1CCN(c2cccc(NC(=O)c3cc4c(Sc5ccc(Cl)cc5Cl)cc(Cl)cc4[nH]3)c2)CC1 [I-121, 6-chloro-4-(2,4-dichlorophenylthio)-N-(3-(4-methylpiperazin-1-yl)phenyl)-1H-indole-2-carboxamide] | < 10 µM | B (an affinity (R3/R0) between 100% and 20%) |
| CNCc1cc2c(Br)cc(Sc3ccc(Cl)c(Cl)c3)cc2n1Cc1ccc(C(=O)N(C)C)cc1 [I-38] | > 100 µM | A (an affinity (R3/R0)>100%) |
| CN(C)C(=O)c1ccc(Cn2c(C(=O)O)cc3c(Br)cc(Sc4ccc(Oc5ccccc5)cc4)cc32)cc1 [I-15, 4-bromo-1-(4-(dimethylcarbamoyl)benzyl)-6-(4-phenoxyphenyl-thio)-1H-indole-2-carboxylic acid] | < 10 µM | B (an affinity (R3/R0) between 100% and 20%) |
| O=C(O)c1cc2c(Sc3cccc(OC(F)(F)F)c3)cc(Cl)cc2[nH]1 [I-126, 6-chloro-4-(3-(trifluoromethoxy)phenylthio)-1H-indole-2-carboxylic acid] | 10 to 100 µM | B (an affinity (R3/R0) between 100% and 20%) |
| CN(C)C(=O)c1ccc(Cn2c(C(=O)O)cc3c(Br)cc(Sc4ccc5ccccc5c4)cc32)cc1 [I-28, 4-bromo-1-(4-(dimethylcarbamoyl)benzyl)-6-(naphthalen-2-ylthio)-1H-indole-2-carboxylic acid] | < 10 µM | B (an affinity (R3/R0) between 100% and 20%) |
| Clc1cccc(Oc2cc(Cl)cc3[nH]ccc23)c1 [I-208, 6-chloro-4-(3-chlorophenoxy)-1H-indole] | 10 to 100 µM | B (an affinity (R3/R0) between 100% and 20%) |
| Nc1ccc(-c2ccc(Cn3c(C(=O)O)cc4c(Sc5ccc(Cl)cc5Cl)cc(Cl)cc43)cc2)cc1 [I-78, 1-((4′-aminobiphenyl-4-yl)methyl)-6-chloro-4-(2,4-dichlorophenylthio)-1H-indole-2-carboxylic acid] | < 10 µM | B (an affinity (R3/R0) between 100% and 20%) |
| OCc1nc2c(OCC3CCCC(O)C3)c(Cl)c(Cl)cc2[nH]1 (stereo not shown) [I-396, 3-((5,6-dichloro-2-(hydroxymethyl)-1H-benzo[d]imidazol-4-yloxy)methyl)cyclohexanol] | 10 to 100 µM | C (an affinity (R3/R0)<20%) |
| O=C(O)c1ccc(CCn2c(C(=O)O)cc3c(Br)cc(Oc4ccccc4)cc32)cc1 [I-36] | > 100 µM | C (an affinity (R3/R0)<20%) |
| Clc1cc2nc(-c3cccnc3)[nH]c2c(Cl)c1Cl [I-355] | > 100 µM | B (an affinity (R3/R0) between 100% and 20%) |
